Several values for one entry are separate records, joined by “and”; a condition that tells them apart may be missing. Equal entries are not always repeated.
Conditions: Liquid; for mass density: Vibrating tube method

CCCC[N+](C)(C)C.O=S(=O)([N-]S(=O)(=O)C(F)(F)F)C(F)(F)F [butyltrimethylammonium bis(trifluoromethylsulfonyl)imide]
Conditions	viscosity [mPa·s]
278.15 K, 101.33 kPa, Concentric cylinders viscometry	360.1
283.15 K, 101.33 kPa, Concentric cylinders viscometry	253.8
288.15 K, 101.33 kPa, Concentric cylinders viscometry	184.7
293.15 K, 101.33 kPa, Concentric cylinders viscometry	138.3
298.15 K, 101.33 kPa, Concentric cylinders viscometry	105.4
298.6 K, 101.33 kPa, Vibrating wire viscometry	102.17
301.53 K, 101.33 kPa, Vibrating wire viscometry	87.01
303.15 K, 101.33 kPa, Concentric cylinders viscometry	82.19
303.15 K, 10000 kPa, Falling or rolling sphere viscometry	93.4
303.15 K, 15000 kPa, Falling or rolling sphere viscometry	99.9
303.15 K, 25000 kPa, Falling or rolling sphere viscometry	114
303.15 K, 50000 kPa, Falling or rolling sphere viscometry	158.2
303.15 K, 75000 kPa, Falling or rolling sphere viscometry	218.5
303.15 K, 100000 kPa, Falling or rolling sphere viscometry	300.8
303.15 K, 125000 kPa, Falling or rolling sphere viscometry	413.1
303.15 K, 150000 kPa, Falling or rolling sphere viscometry	566.6
304.45 K, 101.33 kPa, Vibrating wire viscometry	76.4
307.33 K, 101.33 kPa, Vibrating wire viscometry	66.1
308.15 K, 101.33 kPa, Concentric cylinders viscometry	65.33
310.28 K, 101.33 kPa, Vibrating wire viscometry	58.41
313.15 K, 101.33 kPa, Concentric cylinders viscometry	53.01
313.15 K, 10000 kPa, Falling or rolling sphere viscometry	59.7
313.15 K, 15000 kPa, Falling or rolling sphere viscometry	63.7
313.15 K, 25000 kPa, Falling or rolling sphere viscometry	72.4
313.15 K, 50000 kPa, Falling or rolling sphere viscometry	98.5
313.15 K, 75000 kPa, Falling or rolling sphere viscometry	132.2
313.15 K, 100000 kPa, Falling or rolling sphere viscometry	175.9
313.15 K, 125000 kPa, Falling or rolling sphere viscometry	232.5
313.15 K, 150000 kPa, Falling or rolling sphere viscometry	306
313.34 K, 101.33 kPa, Vibrating wire viscometry	50.51
318.15 K, 101.33 kPa, Concentric cylinders viscometry	43.22
323.15 K, 101.33 kPa, Concentric cylinders viscometry	35.9
323.15 K, 10000 kPa, Falling or rolling sphere viscometry	40.1
323.15 K, 15000 kPa, Falling or rolling sphere viscometry	42.6
323.15 K, 25000 kPa, Falling or rolling sphere viscometry	47.9
323.15 K, 50000 kPa, Falling or rolling sphere viscometry	63.5
323.15 K, 75000 kPa, Falling or rolling sphere viscometry	83.6
323.15 K, 100000 kPa, Falling or rolling sphere viscometry	109.1
323.15 K, 125000 kPa, Falling or rolling sphere viscometry	142
323.15 K, 150000 kPa, Falling or rolling sphere viscometry	183.4
323.33 K, 101.33 kPa, Vibrating wire viscometry	35.59
328.15 K, 101.33 kPa, Concentric cylinders viscometry	30.18
328.27 K, 101.33 kPa, Vibrating wire viscometry	29.72
333.15 K, 101.33 kPa, Concentric cylinders viscometry	25.64
333.15 K, 10000 kPa, Falling or rolling sphere viscometry	28.2
333.15 K, 15000 kPa, Falling or rolling sphere viscometry	29.8
333.15 K, 25000 kPa, Falling or rolling sphere viscometry	33.3
333.15 K, 50000 kPa, Falling or rolling sphere viscometry	43.4
333.15 K, 75000 kPa, Falling or rolling sphere viscometry	56.1
333.15 K, 100000 kPa, Falling or rolling sphere viscometry	71.9
333.15 K, 125000 kPa, Falling or rolling sphere viscometry	91.8
333.15 K, 150000 kPa, Falling or rolling sphere viscometry	116.8
338.15 K, 101.33 kPa, Concentric cylinders viscometry	22.02
343.15 K, 101.33 kPa, Concentric cylinders viscometry	19.08
343.15 K, 10000 kPa, Falling or rolling sphere viscometry	21
343.15 K, 15000 kPa, Falling or rolling sphere viscometry	22
343.15 K, 25000 kPa, Falling or rolling sphere viscometry	24.3
343.15 K, 50000 kPa, Falling or rolling sphere viscometry	31
343.15 K, 75000 kPa, Falling or rolling sphere viscometry	39.5
343.15 K, 100000 kPa, Falling or rolling sphere viscometry	50.3
343.15 K, 125000 kPa, Falling or rolling sphere viscometry	63.8
343.15 K, 150000 kPa, Falling or rolling sphere viscometry	81
348.15 K, 101.33 kPa, Concentric cylinders viscometry	16.65
353.15 K, 101.33 kPa, Concentric cylinders viscometry	14.74
353.15 K, 10000 kPa, Falling or rolling sphere viscometry	15.6
353.15 K, 15000 kPa, Falling or rolling sphere viscometry	16.5
353.15 K, 25000 kPa, Falling or rolling sphere viscometry	18.3
353.15 K, 50000 kPa, Falling or rolling sphere viscometry	23.4
353.15 K, 75000 kPa, Falling or rolling sphere viscometry	29.4
353.15 K, 100000 kPa, Falling or rolling sphere viscometry	36.6
353.15 K, 125000 kPa, Falling or rolling sphere viscometry	45.3
353.15 K, 150000 kPa, Falling or rolling sphere viscometry	55.7
358.15 K, 101.33 kPa, Concentric cylinders viscometry	12.99
363.15 K, 101.33 kPa, Concentric cylinders viscometry	11.58
368.15 K, 101.33 kPa, Concentric cylinders viscometry	10.38
373.15 K, 101.33 kPa, Concentric cylinders viscometry	9.36

101.33 kPa
Conditions	mass density [kg/m3]
278.15 K	1411.5
283.15 K	1406.6
288.15 K	1401.9
293.15 K	1397.2
298.15 K	1392.8
303.15 K	1388.4
308.15 K	1384
313.15 K	1379.7
318.15 K	1375.4
323.15 K	1371.1
328.15 K	1366.8
333.15 K	1362.6
338.15 K	1358.4
343.15 K	1354.2
348.15 K	1350
353.15 K	1345.7
358.15 K	1341.4
363.15 K	1336.8
368.15 K	1332.5
373.15 K	1328.4

CCOS(=O)(=O)[O-].CCn1cc[n+](C)c1 [1-ethyl-3-methylimidazolium ethyl sulfate]
101.33 kPa
Conditions	viscosity
278.15 K, Concentric cylinders viscometry	329 mPa·s
283.15 K, Concentric cylinders viscometry	234.5 mPa·s
288.15 K, Concentric cylinders viscometry	172.2 mPa·s
293.15 K, Concentric cylinders viscometry	130.1 mPa·s
298.15 K, Concentric cylinders viscometry	100 mPa·s
298.52 K, Vibrating wire viscometry	97.32 mPa·s and 98.21 mPa·s
303.15 K, Concentric cylinders viscometry	78.66 mPa·s
303.34 K, Vibrating wire viscometry	76.57 mPa·s
303.38 K, Vibrating wire viscometry	76.99 mPa·s
303.64 K, Vibrating wire viscometry	76.57 mPa·s
308.15 K, Concentric cylinders viscometry	62.99 mPa·s
308.21 K, Vibrating wire viscometry	61.5 mPa·s
313.15 K, Concentric cylinders viscometry	51.59 mPa·s
313.23 K, Vibrating wire viscometry	51.09 mPa·s
313.24 K, Vibrating wire viscometry	50.47 mPa·s
318.15 K, Concentric cylinders viscometry	42.36 mPa·s
318.43 K, Vibrating wire viscometry	41.55 mPa·s
322.6 K, Vibrating wire viscometry	36.51 mPa·s
323.02 K, Vibrating wire viscometry	35.9 mPa·s
323.15 K, Concentric cylinders viscometry	35.43 mPa·s
328.15 K, Concentric cylinders viscometry	29.98 mPa·s
333.15 K, Concentric cylinders viscometry	25.64 mPa·s
338.15 K, Concentric cylinders viscometry	22.13 mPa·s
343.15 K, Concentric cylinders viscometry	19.27 mPa·s
348.15 K, Concentric cylinders viscometry	16.91 mPa·s
353.15 K, Concentric cylinders viscometry	15.03 mPa·s
358.15 K, Concentric cylinders viscometry	13.3 mPa·s
363.15 K, Concentric cylinders viscometry	11.9 mPa·s
368.15 K, Concentric cylinders viscometry	10.71 mPa·s
373.15 K, Concentric cylinders viscometry	9.69 mPa·s

101.33 kPa
Conditions	mass density [kg/m3]
278.15 K	1251.2
283.15 K	1247.3
288.15 K	1243.7
293.15 K	1240.1
298.15 K	1236.7
303.15 K	1233.3
308.15 K	1229.9
313.15 K	1226.5
318.15 K	1223.2
323.15 K	1219.9
328.15 K	1216.6
333.15 K	1213.4
338.15 K	1210.2
343.15 K	1206.9
348.15 K	1203.6
353.15 K	1200.1
358.15 K	1196.6
363.15 K	1193.4
368.15 K	1190.5
373.15 K	1187.4
